The values that follow are results of earlier work, collected in patent US12151062B2, “Compositions and devices to administer pharmaceutical compositions nasally” (BOARD OF REGENTS, THE UNIVERSITY OF TEXAS SYSTEM, priority 2016, dated 2024).

Like-named read-outs stand apart in the source and are kept apart here.

Usually log P stands for the decadic logarithm of the partition coefficient of the neutral form, usually between octanol and water.

For data set [1] the following is noted: for DTE relative to nasal solution alone: mucoadhesive microemulsion i.n.
For data set [2] the following is noted: thermoreversible gel with chitosan and glycerophosphate.
For another data set, the system named is brain tumor. The settings on record: mucoadhesive solution i.n.; rats pre-dosed with acetazolamide.
For data set [3] the following is noted: PLGA nanoparticles.
Assay in data set [4]: not given
This is another data set of the same source.

The conditions of data set [5]: thermosensitive gel i.n. compared to nasal solution in normal saline; rabbits.
The conditions of data set [6]: mice.
The test system of data set [7] is P3 component of the event-related potentials. The settings on record: human subjects.
Assay in data set [8]: not given
The source holds these as a separate data set.

The mark [9] stands for this setting: nasal administration with vasoconstrictor phenylephrine.

In the case of `O=c1[nH]cc(F)c(=O)[nH]1` [5-FU], the “CSF levels with vs without pre-administration of acetazolamide” value in data set [1] (nasal delivery, rats) is on record as “significantly higher CSF levels”. Further, the “increased brain uptake compared to i.v.” value in data set [1] (solution i.n., rats pre-dosed with acetazolamide) is 104%.
On to `CC(C)C[C@H]1C(=O)N2CCC[C@H]2[C@]2(O)O[C@](NC(=O)[C@@H]3C=C4c5cccc6[nH]c(Br)c(c56)C[C@H]4N(C)C3)(C(C)C)C(=O)N12` [Bromocriptine], for which, under “mouse, in vivo”, the “brain AUCs compared to intravenous administration of the nanoparticles” value was “over two-fold greater”; the “brain and plasma AUC values” is “higher”.
`NC(=O)N1c2ccccc2C=Cc2ccccc21` [Carbamazepine]: the “brain levels in the intranasal group” value in data set [1] (even at early time points, vs intravenous solution) is “unable to detect significantly higher brain levels”. Moreover, the “brain AUC-to-plasma AUC ratio compared to intravenous therapy” value in data set [1] (hypromellose and Carbopol 974P gel i.n.) was 4.31 times. The systemic bioavailability in [1] (intranasal formulation compared to intravenous carbamazepine solution) was 100%. Further, the DTE entry (thermoreversible gel i.n., mice) is on record as “DTE - 0.98”.
For the compound `COc1cc(/C=C/C(=O)CC(=O)/C=C/c2ccc(O)c(OC)c2)ccc1O` [Curcumin], the “brain AUC compared to curcumin injection” value in data set [1] (in situ gelling microemulsion i.n.) is given as “three times”.
Consider `CN(C)CCC=C1c2ccccc2COc2ccccc21` [Doxepin], for which the “duration of immobility, forced swim test” value in data set [2] is “no significant difference”.
In the case of `CNCC[C@H](Oc1cccc2ccccc12)c1cccs1` [Duloxetine], the “brain concentrations compared to intravenous administration of duloxetine solution” value in data set [1] (lipid nanocarrier i.n.) is “about eight times higher”. Also, the DTE in data set [1] (lipid nanocarrier i.n., rats) was 757.14%; in data set [1] (lipid nanocarrier i.n., rats, listed as duloxetine), 757.14%; in [1] (solution i.n., rats), “to 287.34%”; in [1] (solution i.n., rats, listed as duloxetine), 287.34%.
For the compound `C[C@]12CC[C@@H]3c4ccc(O)cc4CC[C@H]3[C@@H]1CC[C@@H]2O` [Estradiol], the AUCCSF/AUCplasma is listed as 1.60 in data set [1] (cyclodextrin formulation i.n., rats) and 0.61 from in data set [1] (i.v., rats).
Turning to `CN(Cc1cnc2nc(N)nc(N)c2n1)c1ccc(C(=O)N[C@@H](CCC(=O)O)C(=O)O)cc1` [Methotrexate], in the data set with brain tumor, the “reduction in brain tumor weight” value is recorded as 75%. For the same compound, the “increase in uptake compared to i.n. without acetazolamide” value in data set [1] (mucoadhesive solution i.n., rats pre-dosed with acetazolamide) is on record as 195%. The “CSF AUC after nasal administration compared to intravenous administration” value in data set [1] (rat, in vivo, iv) is reported as “greater than 13 fold”. Besides, the DTE result in [1] (solution i.n., rats) is listed as “DTE- 21.7%”.
Regarding `COCCOC(=O)C1=C(C)NC(C)=C(C(=O)OC(C)C)C1c1cccc([N+](=O)[O-])c1` (stereo not drawn) [Nimodipine], in data set [1] (microemulsion, rats), the “AUC in olfactory bulb after i.n. compared with i.v. treatment” value was “Higher AUC” and the “AUC in rest of brain after i.n. compared with i.v. treatment” value is recorded as “lower AUC”.
Take `Cc1cc2c(s1)Nc1ccccc1N=C2N1CCN(C)CC1` [Olanzapine]: in data set [3], the “diffusion through sheep nasal mucosa, ex vivo” value is given as “slower”. The DTE result in [1] (i.n. solution, rats) was “to 550%”; in data set [1] (mucoadhesive nanoemulsion i.n., rats), “DTE-890%”; in data set [1] (nanomicellar carrier i.n., rats), 520.26%.
Take `Cc1nc2n(c(=O)c1CCN1CCC(c3noc4cc(F)ccc34)CC1)CCCC2O` (stereo not drawn) [Paliperidone]: the “brain AUCs compared to intravenous administration of the microemulsion” value in [1] (intranasal mucoadhesive microemulsion, rats) is recorded as 2.43 times. In addition, the DTE in data set [1] (mucoadhesive microemulsion (polycarbophil) i.n., rats) was 320.69%;; in [1] (mucoadhesive microemulsion (polycarbophil) i.n., rats, listed as paliperidone), 320.69%. Also, the “DTE relative to nasal solution alone” value in data set [1] (rats) is on record as 1.74-fold; in data set [1] (rats, listed as paliperidone), 1.74 fold.
Consider `Cc1nc2ccc(CN(C)c3ccc(C(=O)N[C@@H](CCC(=O)O)C(=O)O)s3)cc2c(=O)[nH]1` [Raltitrexed], for which, in data set [4], the “log P” value is on record as −0.98. Besides, the “increase in the AUC after intranasal use compared to intravenous use” value in [1] (depending on the section of brain, rats) was 54-121 fold. For the same compound, in data set [1] (solution (PBS pH 8) i.n., rats), the “DTE for Cerebrum” value was 120 and the “DTE for Olfactory Bulb” value is listed as 127.
As for `C#CCN[C@@H]1CCc2ccccc21` [Rasagiline], in data set [5], the “brain uptake from gel formulations” value is recorded as “significantly higher brain uptake”.
In the case of `Cc1nc2n(c(=O)c1CCN1CCC(c3noc4cc(F)ccc34)CC1)CCCC2` [Risperidone], the locomotor activity result in [6] (any of the tested formulations) was “significantly reduced”. The “locomotor activity compared to nanoemulsion given intravenously” value in data set [6] (nanoemulsion and mucoadhesive nanoemulsion given intranasally) was “significant reduction”. For the same compound, the “plasma AUC after intranasal administration vs intravenous” value (SLNs) is given as “lower”.
`CCCN(CCC)CCc1cccc2c1CC(=O)N2` [Ropinirole]: the DTE entry in [1] (temperature sensitive in situ gel with chitosan and HPMC i.n., rats) is reported as “DTE-10.4”.
Regarding `Nc1c2c(nc3ccccc13)CCCC2` [Tacrine], the “direct transport efficiency (DTE)” value (mouse, in vivo) was 207.23.
`CN(C)CCc1c[nH]c2ccc(C[C@H]3COC(=O)N3)cc12` [Zolmitriptan]: in data set [1] (micellar formulation i.n., rats), the “brain concentrations 30 minutes after administration” value is given as “about fivefold higher”. The “brain concentrations, 30 min up to 120 min” value in data set [1] (micellar nanocarrier i.n., rats) is recorded as “significantly higher brain concentrations up to 120 minutes”.
Regarding `NC(=O)CC[C@@H]1NC(=O)[C@H](Cc2ccccc2)NC(=O)[C@H](Cc2ccc(O)cc2)NC(=O)[C@@H](N)CSSC[C@@H](C(=O)N2CCC[C@H]2C(=O)N[C@@H](CCCN=C(N)N)C(=O)NCC(N)=O)NC(=O)[C@H](CC(N)=O)NC1=O` [arginine vasopressin], the “P3 component of event-related potentials” value is “significant increase” in data set [7] (after intranasal administration) and “did not show significant differences” in [7] (intravenous administration, compared to placebo). Moreover, the “plasma concentrations after intravenous administration compared to intranasal use” value in data set [7] is recorded as “higher”.
Regarding `O=c1ccc2ccccc2o1` [coumarin], the “brain concentrations compared to unmodified PEG-PLA nanoparticles i.n.” value in data set [8] (wheat germ agglutinin conjugated PEG-PLA nanoparticles i.n.) is “two-fold increase”.
`NCCc1ccc(O)c(O)c1` [dopamine]: the “brain concentrations compared to nerve growth factor dosed at the same concentration” value in data set [1] (intranasal) is on record as “fivefold higher”.
GDF-5: growth differentiation factor 5: the “midbrain concentrations compared to acidic solution” value in data set [1] (rat, in vivo) is “Significantly higher midbrain concentrations compared to acidic solution”.
With L-Tyr-D Arg, in data set [8] (setting [9]), the “amount delivered to the olfactory bulb” value was “significantly increased”, the “amount in the trigeminal nerve” value is “decreased amount”, the “amount of drug absorbed into the systemic circulation” value is “significantly decreased” and the “decrease in whole brain concentrations” value is “about 50%”.
As to “hypocretin-1 (QPLPDCCRQKTCSCRLYELLHGAGNHAAGILTL; Orexin-A; UniProt O43612 34-66, looked up)”, in [8] (in vivo), the “amount delivered to the olfactory bulb” value was “significantly increased”, the “amount in the trigeminal nerve” value is “decreased amount”, the “amount of drug absorbed into the systemic circulation” value is “significantly decreased” and the “decrease in whole brain concentrations” value is recorded as “about 50%”.
With vasoactive intestinal peptide, in data set [8] (in vivo), the “brain levels compared to solution given intranasally” value is given as 5.6-7.7 fold and the “brain levels compared to unmodified nanoparticles” value is on record as “higher brain levels”.
